Results on 27 compounds are retold here after patent publication US12338262B2 (Forward Therapeutics, Inc., priority 2022, dated 2025).

For this experiment, the target named is TNF-α (Homo sapiens, UniProt P01375). The experiment is described as follows: TNF-α Induced HEK Blue Cellular Assay. It is filed as cell-based. The conditions noted are these: HEK Blue TNFα reporter cells, TNF-α 100 pg/ml, 24 hrs at 37° C., secreted alkaline phosphatase (QUANTI-Blue, 620 nm). On the procedure: TNF-α Induced HEK Bluet Cellular Assay
Sequence of TNF-α (P01375 77-233 limits assumed): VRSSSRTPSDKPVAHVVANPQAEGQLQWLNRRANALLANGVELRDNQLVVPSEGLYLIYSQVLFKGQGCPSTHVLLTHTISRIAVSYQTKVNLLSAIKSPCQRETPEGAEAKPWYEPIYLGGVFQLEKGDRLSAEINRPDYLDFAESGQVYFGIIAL
Test articles were diluted in DMSO and serially diluted into 384 well assay plate (Corning 3765), at final concentrations ranging from […] to 0.5 nM. HEK Blue™ TNFα reporter cells were added at a final density of 10,000 cell per well in assay media [DMEM (Gibco, cat #21063-029), 10% fetal bovine serum (ExcelBio, cat #FND500), 1% Penicillin-Streptomycin (Solarbio, cat #P1400-100]. TNF-α (R&D 210-TA-020/CF) was then added to the assay plate at a final concentration of 100 pg/ml. This plate was then incubated for 24 hrs at 37° C. and 5% CO2. Secreted alkaline phosphatase expression was then measured using QUANTI-Blue™ (Invivogen), according to manufacturer instructions and read on an Envision microplate reader at 620 nm.
Inhibition data for test compound over a range of concentration was plotted as percentage inhibition of the test compound (100%=maximum inhibition). IC50 values were determined after correcting for background [(sample read-mean of low control)/(mean of high control-mean of low control)] where by the low control is DMSO without stimulation and high control is DMSO with stimulation. The IC50 is defined as the concentration of test compound which produces 50% inhibition and was quantified using the 4 parameter logistic equation to fit the data.
With `Cc1nc2cc(F)c(-c3cnc(P(C)(C)=O)nc3)nc2c(N[C@H](C)c2cc(C#N)cc(F)c2F)c1Cl` [Example 131, 3-[(1R)-1-({3-chloro-6-[2-(dimethylphosphoryl)pyrimidin-5-yl]-7-fluoro-2-methyl-1,5-naphthyridin-4-yl}amino)ethyl]-4,5-difluorobenzonitrile], the IC50 is no more than 1000 nM.
In turn, `Cc1nc2cc(F)c(-c3ccc(P(C)(C)=O)nc3)cc2c(N[C@H](C)c2cc(C#N)ccc2F)c1Cl` [Example 10, 3-[(1R)-1-({3-chloro-6-[6-(dimethylphosphoryl)pyridin-3-yl]-7-fluoro-2-methylquinolin-4-yl}amino)ethyl]-4-fluorobenzonitrile] returned an IC50 of no more than 100 nM.
Compound `CCP(=O)(CC)c1ccc(-c2nc3c(N[C@H](C)c4cc(C#N)ccc4F)c(Cl)c(C)nc3cc2F)cn1` [Example 42, 3-[(1R)-1-({3-chloro-6-[6-(diethylphosphoryl)pyridin-3-yl]-7-fluoro-2-methyl-1,5-naphthyridin-4-yl}amino)ethyl]-4-fluorobenzonitrile] registered an IC50 of no more than 100 nM.
Take `Cc1nc2cc(F)c(-c3ccc(P(=O)(O)O)nc3)nc2c(N[C@H](C)c2cc(C#N)ccc2F)c1Cl` [Example 37, diammonium 5-(7-chloro-8-{[(1R)-1-(5-cyano-2-fluorophenyl)ethyl]amino}-3-fluoro-6-methyl-1,5-naphthyridin-2-yl)pyridin-2-ylphosphonate]: the half-inhibitory concentration (IC50) lay within 10000 to 30000 nM.
Next, `Cc1nc2cc(F)c(-c3ccc(P(C)(C)=O)nc3)nc2c(N[C@@H](c2cc(C#N)ccc2F)C(F)F)c1Cl` [Example 34, (S)-3-(1-((3-chloro-6-(6-(dimethylphosphoryl)pyridin-3-yl)-7-fluoro-2-methyl-1,5-naphthyridin-4-yl)amino)-2,2-difluoroethyl)-4-fluorobenzonitrile]: no more than 100 nM.
Take `Cc1nc2cc(F)c(-c3ccc(P(C)(C)=O)nc3)nc2c(N[C@H](C)c2cc(C#N)ccc2F)c1Cl` [Example 2, 3-[(1R)-1-({3-chloro-6-[6-(dimethylphosphoryl)pyridin-3-yl]-7-fluoro-2-methyl-1,5-naphthyridin-4-yl}amino)ethyl]-4-fluorobenzonitrile]: the IC50 was no more than 100 nM.
Take `Cc1nc2cc(F)c(-c3ccc(P(C)(C)=O)nc3)nc2c(N[C@H](C)c2ccc(F)c(F)c2F)c1Cl` (single isomer, unassigned) [Example 109]: the IC50 is no more than 100 nM.
Next, `Cc1nc2cc(F)c(-c3ccc(P(C)(C)=O)nc3)nc2c(N[C@H](C)c2cccnc2)c1Cl` [Example 75, 3-chloro-6-[6-(dimethylphosphoryl)pyridin-3-yl]-7-fluoro-2-methyl-N-[(1R)-1-(pyridin-3-yl)ethyl]-1,5-naphthyridin-4-amine]: no more than 100 nM; `Cc1nc2cc(F)c(-c3ccc(P(C)(C)=O)nc3)nc2c(N[C@H](C)c2nc(C#N)ccc2F)c1Cl` [Example 123, 6-[(1R)-1-({3-chloro-6-[6-(dimethylphosphoryl)pyridin-3-yl]-7-fluoro-2-methyl-1,5-naphthyridin-4-yl}amino)ethyl]-5-fluoropyridine-2-carbonitrile]: no more than 1000 nM.
Regarding `Cc1nc2cc(F)c(-c3cnc(P(C)(C)=O)c(F)c3)nc2c(N[C@H](C)c2cc(C#N)ccc2F)c1Cl` [Example 120, 3-[(1R)-1-({3-chloro-6-[6-(dimethylphosphoryl)-5-fluoropyridin-3-yl]-7-fluoro-2-methyl-1,5-naphthyridin-4-yl}amino)ethyl]-4-fluorobenzonitrile], the concentration for half-maximal inhibition (IC50) is no more than 100 nM.
As for `Cc1nc2cc(F)c(-c3ccc(P(C)(C)=O)nc3)nc2c(N[C@@H](c2ccccc2F)C(F)F)c1Cl` (single isomer, unassigned) [Example 25], the figure is no more than 100 nM.
`CC[C@@H](Nc1c(Cl)c(C)nc2cc(F)c(-c3cnc(P(C)(C)=O)nc3)nc12)c1cccc(F)c1F` [Example 113, (R)-(5-(7-chloro-8-((1-(2,3-difluorophenyl)propyl)amino)-3-fluoro-6-methyl-1,5-naphthyridin-2-yl)pyrimidin-2-yl)dimethylphosphine oxide] had an IC50 of no more than 1000 nM.
Next, `Cc1nc2cc(F)c(-c3ccc(P(C)(C)=O)nc3)nc2c(N[C@H](C)c2cc(F)cc(C#N)c2)c1Cl` [Example 99, 3-[(1R)-1-({3-chloro-6-[6-(dimethylphosphoryl)pyridin-3-yl]-7-fluoro-2-methyl-1,5-naphthyridin-4-yl}amino)ethyl]-5-fluorobenzonitrile]: no more than 1000 nM; `Cc1nc2cc(F)c(-c3ccc(P(C)(C)=O)nc3)nc2c(N[C@H](C)c2ncccc2F)c1Cl` (single isomer, unassigned) [Example 116]: no more than 100 nM; `Cc1nc2cc(F)c(-c3ccc(P4(=O)CCCC4)nc3)nc2c(N[C@H](C)c2cc(C#N)ccc2F)c1Cl` [Example 27, 3-[(1R)-1-({3-chloro-7-fluoro-2-methyl-6-[6-(1-oxo-1lambda5-phospholan-1-yl)pyridin-3-yl]-1,5-naphthyridin-4-yl}amino)ethyl]-4-fluorobenzonitrile]: no more than 100 nM.
As for `Cc1nc2cc(F)c(-c3ccc(P(C)(C)=O)nc3)nc2c(N[C@H](C)c2cc(C#N)cc(F)c2F)c1Cl` [Example 106, 3-[(1R)-1-({3-chloro-6-[6-(dimethylphosphoryl)pyridin-3-yl]-7-fluoro-2-methyl-1,5-naphthyridin-4-yl}amino)ethyl]-4,5-difluorobenzonitrile], the figure is no more than 100 nM; as for `CC[C@@H](Nc1c(Cl)c(C)nc2cc(F)c(-c3ccc(P(C)(C)=O)nc3)nc12)c1cccc(C#N)c1` [Example 48, 3-[(1R)-1-({3-chloro-6-[6-(dimethylphosphoryl)pyridin-3-yl]-7-fluoro-2-methyl-1,5-naphthyridin-4-yl}amino)propyl]benzonitrile], no more than 100 nM; as for `Cc1nc2cc(F)c(-c3cnc(P(C)(C)=O)nc3)cc2c(N[C@H](C)c2cc(C#N)ccc2F)c1Cl` [Example 8, 3-[(1R)-1-({3-chloro-6-[2-(dimethylphosphoryl)pyrimidin-5-yl]-7-fluoro-2-methylquinolin-4-yl}amino)ethyl]-4-fluorobenzonitrile], no more than 100 nM.
As for `C[C@@H](Nc1c(Cl)cnc2cc(F)c(-c3ccc(P(C)(C)=O)nc3)nc12)c1cc(C#N)ccc1F` [Example 15, 3-[(1R)-1-({3-chloro-6-[6-(dimethylphosphoryl)pyridin-3-yl]-7-fluoro-1,5-naphthyridin-4-yl}amino)ethyl]-4-fluorobenzonitrile], the figure is no more than 100 nM; as for `Cc1nc2cc(F)c(-c3cnc(P(C)(C)=O)nc3)nc2c(NC(c2ccccc2F)C(F)F)c1Cl` (stereo not drawn) [Example 29, 3-chloro-N-[2,2-difluoro-1-(2-fluorophenyl)ethyl]-6-[2-(dimethylphosphoryl)pyrimidin-5-yl]-7-fluoro-2-methyl-1,5-naphthyridin-4-amine], no more than 1000 nM; as for `C[C@@H](Nc1c(Cl)cnc2cc(F)c(-c3cnc(P(C)(C)=O)nc3)nc12)c1cc(C#N)ccc1F` [Example 14, 3-[(1R)-1-({3-chloro-6-[2-(dimethylphosphoryl)pyrimidin-5-yl]-7-fluoro-1,5-naphthyridin-4-yl}amino)ethyl]-4-fluorobenzonitrile], no more than 1000 nM.
As to `Cc1nc2cc(F)c(-c3ccc(P(C)(C)=O)nc3)cc2c(N[C@H](C)c2cccc(F)c2F)c1Cl` [Example 67, 3-chloro-N-[(1R)-1-(2,3-difluorophenyl)ethyl]-6-[6-(dimethylphosphoryl)pyridin-3-yl]-7-fluoro-2-methylquinolin-4-amine], the IC50 is no more than 100 nM.
As for `Cc1nc2cc(F)c(-c3ccc(P(C)(C)=O)nc3)nc2c(NC2(c3ccccn3)CC2)c1Cl` [Example 111, 3-chloro-6-[6-(dimethylphosphoryl)pyridin-3-yl]-7-fluoro-2-methyl-N-[1-(pyridin-2-yl)cyclopropyl]-1,5-naphthyridin-4-amine], the figure is no more than 100 nM; as for `CC[C@H](Nc1c(Cl)c(C)nc2cc(F)c(-c3ccc(P(C)(C)=O)nc3)c(F)c12)c1ncccc1F` [Example 73, (S)-(5-(3-chloro-5,7-difluoro-4-((1-(3-fluoropyridin-2-yl)propyl)amino)-2-methylquinolin-6-yl)pyridin-2-yl)dimethylphosphine oxide], no more than 1000 nM.
As to `Cc1cc(P(C)(C)=O)ncc1-c1nc2c(N[C@H](C)c3ccccc3F)c(Cl)c(C)nc2cc1F` [Example 62, 3-chloro-6-[6-(dimethylphosphoryl)-4-methylpyridin-3-yl]-7-fluoro-N-[(1R)-1-(2-fluorophenyl)ethyl]-2-methyl-1,5-naphthyridin-4-amine], the IC50 is no more than 1000 nM.
Next, `Cc1nc2cc(F)c(-c3ccc(P(C)(C)=O)nc3)nc2c(N[C@H](C)c2c(F)ccc(F)c2F)c1Cl` [Example 89, 3-chloro-6-[6-(dimethylphosphoryl)pyridin-3-yl]-7-fluoro-2-methyl-N-[(1R)-1-(2,3,6-trifluorophenyl)ethyl]-1,5-naphthyridin-4-amine]: 10000 to 30000 nM.
Compound `CC[C@@H](Nc1c(Cl)c(C)nc2cc(F)c(-c3cnc(P(C)(C)=O)nc3)nc12)c1cccc(C#N)c1` [Example 47, 3-[(1R)-1-({3-chloro-6-[2-(dimethylphosphoryl)pyrimidin-5-yl]-7-fluoro-2-methyl-1,5-naphthyridin-4-yl}amino)propyl]benzonitrile] displayed a half-inhibitory concentration (IC50) of no more than 1000 nM.

Usually IC50 stands for the concentration that inhibits the measured activity by half.
